Each structure is given as a SMILES string.

Usually IC50 stands for the point on the concentration scale where inhibition reaches its midpoint. What is called AC50 is the concentration giving half of the maximal activity seen.

In assay [1] the test system is contractile response of isolated guinea pig ileum to angiotensin I. Description: Inhibition of contractile response of isolated guinea pig ileum to angiotensin I. The assay is classed as cell-based. The settings on record: Cavia porcellus, angiotensin I 0.1 μg/ml; compound added 5 min before; 30° C.; read-out: Angiotensin I IC50 (50% inhibition of angiotensin I activity inducing the contraction of guinea pig ileum). The source says: As the method of measurement of angiotensin I-converting enzyme activity, bioassay for the contractile response of isolated smooth muscle or the pressor response of normal animals and biochemical assay for the enzyme isolated from lung or other organs of animals are known. The former is found more advantageous than the latter for the examination of the convertion of angiotensin I to angiotensin II in vivo.
In the present study, therefore, we adopted the bioassay for contractile response of isolated guinea pig ileum to angiotensin I.
(§1) Measurement of inhibitory activity of angiotensin I-converting enzyme
(§2) Isolated guinea pig ileum was suspended in the organ bath containing 20 ml of Tyrode's solution of 30° C. gassed with 95% O2 +5% CO2. The contraction induced by the addition of angiotensin I (0.1 μg/ml) at intervals of 10 minutes was recorded on a recticorder (Nihon Koden) for 90 seconds using FD pick up (ST-1T-H, Nihon Koden).
(§3) The test compounds were added to the bath 5 minutes before the addition of angiotensin I.
The inhibitory activity of angiotensin I-converting enzyme was calculated by the following formula. [formula] A: contractile intensity of angiotensin I before addition of the compound B: contractile intensity of angiotensin I after addition of the compound

Assay [2] deals with contractile response to bradykinin (isolated guinea pig ileum). Description: Augmentation of contractile response of isolated guinea pig ileum to bradykinin. The settings on record: Cavia porcellus, bradykinin 0.005 μg/ml; compound added 5 min before; 30° C.; read-out: Bradykinin AC50 (50% augmentation of bradykinin activity inducing the contraction of guinea pig ileum). The assay is classed as cell-based. The procedure:
as §2, §3
From the fact that kininase II, which destroys bradykinin having contractive action on isolated guinea pig ileum, is thought to be identical with angiotensin I-converting enzyme, augmentation of the contractile response to bradykinin by test compounds was examined by using bradykinin (0.005 μg/ml) in place of angiotensin I according to the above mentioned method.

The target of assay [3] is T1, angiotensin I-converting enzyme (Oryctolagus cuniculus, UniProt P12822).
T1 construct: angiotensin I-converting enzyme extracted from rabbit lung; from tissue; host or cells: rabbit lung
T1 sequence (P12822 34-1310): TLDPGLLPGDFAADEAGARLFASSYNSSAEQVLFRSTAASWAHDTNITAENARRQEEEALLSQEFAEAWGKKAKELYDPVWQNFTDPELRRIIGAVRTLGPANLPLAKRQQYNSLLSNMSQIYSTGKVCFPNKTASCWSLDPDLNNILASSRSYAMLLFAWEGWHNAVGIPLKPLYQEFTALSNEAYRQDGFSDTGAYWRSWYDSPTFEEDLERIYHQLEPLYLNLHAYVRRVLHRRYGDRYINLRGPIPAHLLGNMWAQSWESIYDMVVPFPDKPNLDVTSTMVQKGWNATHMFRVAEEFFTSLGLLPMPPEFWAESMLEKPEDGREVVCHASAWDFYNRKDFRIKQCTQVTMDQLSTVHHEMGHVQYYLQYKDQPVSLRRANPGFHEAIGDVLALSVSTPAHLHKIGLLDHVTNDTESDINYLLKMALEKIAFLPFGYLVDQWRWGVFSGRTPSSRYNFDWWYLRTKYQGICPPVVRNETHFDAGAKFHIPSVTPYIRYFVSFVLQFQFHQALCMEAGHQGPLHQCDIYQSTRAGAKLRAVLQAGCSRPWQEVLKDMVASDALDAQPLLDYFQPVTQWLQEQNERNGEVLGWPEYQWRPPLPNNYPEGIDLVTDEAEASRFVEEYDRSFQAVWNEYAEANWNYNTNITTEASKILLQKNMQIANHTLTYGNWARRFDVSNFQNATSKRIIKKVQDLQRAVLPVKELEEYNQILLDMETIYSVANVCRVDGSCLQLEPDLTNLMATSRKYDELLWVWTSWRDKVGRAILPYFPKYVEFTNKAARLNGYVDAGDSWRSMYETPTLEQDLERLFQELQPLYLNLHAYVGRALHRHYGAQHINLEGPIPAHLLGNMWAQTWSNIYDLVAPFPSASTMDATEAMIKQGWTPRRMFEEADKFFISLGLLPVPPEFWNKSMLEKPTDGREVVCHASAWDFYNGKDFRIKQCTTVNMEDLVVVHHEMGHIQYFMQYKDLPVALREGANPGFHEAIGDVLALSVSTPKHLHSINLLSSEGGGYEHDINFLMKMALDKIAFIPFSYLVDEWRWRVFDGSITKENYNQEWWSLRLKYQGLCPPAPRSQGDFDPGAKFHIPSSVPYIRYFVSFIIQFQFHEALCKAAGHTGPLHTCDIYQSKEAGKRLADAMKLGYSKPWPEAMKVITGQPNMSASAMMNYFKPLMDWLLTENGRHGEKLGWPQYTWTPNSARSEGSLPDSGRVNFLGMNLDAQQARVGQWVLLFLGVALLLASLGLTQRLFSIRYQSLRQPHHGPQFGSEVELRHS
Briefly: Inhibition of angiotensin I-converting enzyme by spectrophotometry (HHL substrate). The settings on record: enzyme from rabbit lung; 5 mM HHL; pH 8.3; 37° C., 30 min. The assay is classed as biochemical. The procedure: That is, the absorbance of hippuric acid was measured, which is liberated by incubating hippuryl-L-histidyl-L-leucine (HHL) as substrate in the presence of angiotensin I-converting enzyme extracted from rabbit lung.
as §1
The reaction mixture is as follows:
100 mM phosphate buffer (pH 8.3)
10^-3 ~10^-9 M enzyme inhibitor
0.25 ml of the above mixture was incubated at 37° C. for 30 minutes and the reaction was stopped by adding 0.25 ml of 1 N hydrochloric acid. To this solution, 1.5 ml of ethyl acetate was added in order to extract hippuric acid. 1.0 ml of ethyl acetate layer was collected and evaporated to dryness, and the residue obtained was dissolved in 1.0 ml of water.
The inhibitory activity of angiotensin I-converting enzyme was calculated by the following formula: [formula]

As to `CC(C)=CCCC(C)CC1SC[C@@H](C(=O)O)N1C(=O)[C@H](C)CS` (stereo partly drawn) [Compound 2], the IC50 is 480 nM in assay [1] and 3200 nM in assay [3]. Besides, in assay [2], the half-maximal activity concentration (AC50) turned out to be 19 nM.

Consider `O=C(O)[C@@H]1CSC(c2ccccc2)N1C(=O)CS` (stereo partly drawn) [Compound 12], for which the IC50 was determined as 900 nM in assay [1] and 13000 nM in assay [3]. In addition, the concentration at half-maximal activity (AC50) in assay [2] was found to be 19 nM.

Take `O=C(O)[C@@H]1CSC(c2ccccc2)N1C(=O)CCS` (stereo partly drawn) [Compound 16]: the results for the IC50 in assay [1] and in assay [3] were 240 nM and 450 nM, respectively. The concentration at half-maximal activity (AC50) in assay [2] is 2.6 nM.

For the molecule `Cc1ccc(C2SC[C@@H](C(=O)O)N2C(=O)[C@H](C)CS)cc1` (stereo partly drawn) [Compound 22], the half-inhibitory concentration (IC50) in assay [1] was 170 nM; in assay [3], 540 nM. The half-maximal activity concentration (AC50) in assay [2] came out at 3.9 nM.

Turning to `O=C(O)[C@@H]1CSC(c2ccccc2Cl)N1C(=O)CCS` (stereo partly drawn) [Compound 24], the concentration for half-maximal inhibition (IC50) was determined as 700 nM in assay [1] and 3600 nM in assay [3]. In assay [2], the half-maximal activity concentration (AC50) is 16 nM.

As to `C[C@H](CS)C(=O)N1C(c2cccc([N+](=O)[O-])c2)SC[C@H]1C(=O)O` (stereo partly drawn) [Compound 34], the IC50 in assay [1] was found to be 180 nM; in assay [3], 400 nM. The half-maximal activity concentration (AC50) in assay [2] came to 2.5 nM.

For the molecule `O=C(O)[C@@H]1CSC(c2ccccc2O)N1C(=O)CS` (stereo partly drawn) [Compound 44], the IC50 amounted to 560 nM in assay [1] and 2200 nM in assay [3]. For the same molecule, the half-maximal activity concentration (AC50) in assay [2] amounted to 5 nM.

As for `O=C(O)[C@@H]1CSC(c2cccc(O)c2)N1C(=O)CCS` (stereo partly drawn) [Compound 52], the half-inhibitory concentration (IC50) in assay [1] amounted to 71 nM; in assay [3] it was 210 nM. The AC50 in assay [2] is 1.5 nM.

With `C[C@H](CS)C(=O)N1C(c2cccc(O)c2)SC[C@H]1C(=O)O` (stereo partly drawn) [Compound 54], the half-inhibitory concentration (IC50) in assay [1] came to 150 nM; in assay [3], 230 nM. The concentration at half-maximal activity (AC50) in assay [2] was determined as 1.7 nM.

In the case of `O=C(O)[C@@H]1CSC(c2ccc(O)cc2)N1C(=O)CCS` (stereo partly drawn) [Compound 56], the IC50 amounted to 460 nM in assay [1] and 1200 nM in assay [3]. Further, the concentration at half-maximal activity (AC50) in assay [2] worked out at 5.5 nM.

`O=C(O)[C@@H]1CSC(c2ccc(O)c(O)c2)N1C(=O)CCS` (stereo partly drawn) [Compound 58]: the concentration for half-maximal inhibition (IC50) turned out to be 520 nM in assay [1] and 2600 nM in assay [3]. Also, the concentration at half-maximal activity (AC50) in assay [2] came out at 5.8 nM.

As to `C[C@H](CS)C(=O)N1C(c2cc(Cl)ccc2O)SC[C@H]1C(=O)O` (stereo partly drawn) [Compound 60], the figures for the concentration for half-maximal inhibition (IC50) in assay [1] and in assay [3] were 92 nM and 75 nM, respectively. The AC50 in assay [2] amounted to 2 nM.

With `COc1ccccc1C1SC[C@@H](C(=O)O)N1C(=O)[C@H](C)CS` (stereo partly drawn) [Compound 64], the IC50 came to 500 nM in assay [1] and 420 nM in assay [3]. In addition, the AC50 in assay [2] amounted to 8 nM.

For `COc1ccc(C2SC[C@@H](C(=O)O)N2C(=O)[C@H](C)CS)cc1` (stereo partly drawn) [Compound 68], the values for the half-inhibitory concentration (IC50) in assay [1] and in assay [3] were 88 nM and 750 nM, respectively. For the same molecule, the AC50 in assay [2] was found to be 2.1 nM.

In the case of `COc1cc(C2SC[C@@H](C(=O)O)N2C(=O)[C@H](C)CS)cc(OC)c1OC` (stereo partly drawn) [Compound 71], the IC50 was 410 nM in assay [1] and 390 nM in assay [3]. In assay [2], the AC50 is 9.4 nM.

With `COc1cccc(C2SC[C@@H](C(=O)O)N2C(=O)CCS)c1O` (stereo partly drawn) [Compound 73], the 50% inhibitory concentration (IC50) in assay [1] turned out to be 36 nM; in assay [3], 93 nM. Further, the half-maximal activity concentration (AC50) in assay [2] is 1.1 nM.

On to `COc1ccc(C2SC[C@@H](C(=O)O)N2C(=O)CCS)c(O)c1` (stereo partly drawn) [Compound 75], for which the half-inhibitory concentration (IC50) amounted to 140 nM in assay [1] and 200 nM in assay [3]. Also, the concentration at half-maximal activity (AC50) in assay [2] was found to be 3.1 nM.

Consider `COc1cc(C2SC[C@@H](C(=O)O)N2C(=O)[C@H](C)CS)ccc1O` (stereo partly drawn) [Compound 79], for which the results for the half-inhibitory concentration (IC50) in assay [1] and in assay [3] were 210 nM and 1300 nM, respectively. Moreover, the concentration at half-maximal activity (AC50) in assay [2] stood at 3.2 nM.

For `C[C@H](CS)C(=O)N1C(c2ccc3c(c2)OCO3)SC[C@H]1C(=O)O` (stereo partly drawn) [Compound 81], the IC50 in assay [1] is 140 nM; in assay [3], 240 nM. The AC50 in assay [2] is 0.94 nM.

Turning to `C[C@H](CS)C(=O)N1C(c2cccc3ccccc23)SC[C@H]1C(=O)O` (stereo partly drawn) [Compound 83], the IC50 in assay [1] amounted to 360 nM; in assay [3], 1300 nM. Moreover, in assay [2], the half-maximal activity concentration (AC50) turned out to be 13 nM.

Take `C[C@H](CS)C(=O)N1C(c2ccco2)SC[C@H]1C(=O)O` (stereo partly drawn) [Compound 85]: the values for the IC50 in assay [1] and in assay [3] were 240 nM and 340 nM, respectively. In addition, the AC50 in assay [2] is 3.7 nM.

With `Cc1ccc(C2SC[C@@H](C(=O)O)N2C(=O)[C@H](C)CS)o1` (stereo partly drawn) [Compound 87], the half-inhibitory concentration (IC50) is 460 nM in assay [1] and 730 nM in assay [3]. Besides, the AC50 in assay [2] worked out at 2.6 nM.

Consider `C[C@H](CS)C(=O)N1C(c2cccs2)SC[C@H]1C(=O)O` (stereo partly drawn) [Compound 91], for which the figures for the IC50 in assay [1] and in assay [3] were 700 nM and 370 nM, respectively. Moreover, the AC50 in assay [2] is 10 nM.

Regarding `C[C@H](CS)C(=O)N1C(c2cccnc2)SC[C@H]1C(=O)O` (stereo partly drawn) [Compound 93], the results for the 50% inhibitory concentration (IC50) in assay [1] and in assay [3] were 140 nM and 840 nM, respectively. In addition, the AC50 in assay [2] was found to be 2.9 nM.

For `C[C@H](CS)C(=O)N1C(c2ccncc2)SC[C@H]1C(=O)O` (stereo partly drawn) [Compound 95], the IC50 in assay [1] worked out at 83 nM; in assay [3], 110 nM. Moreover, the AC50 in assay [2] was found to be 3.1 nM.

As to `C[C@H](CS)C(=O)N1CSC[C@H]1C(=O)O` [Compound 96, reference compound], the IC50 in assay [1] is 170 nM; in assay [3], 260 nM. Moreover, the AC50 in assay [2] is 2.6 nM.

The values are drawn from patent US4356183A, “Antihypertensive 4-thiazolidinecarboxylic acids (pyridyl derivatives)” (Santen Pharmaceutical Co., Ltd., priority 1978, dated 1982).
